In the kinase profiling compilation of Christmann-Franck et al. (2016):

How the values were obtained:
Assay in all cases: radiometric filter-binding kinase assay, Kinase HotSpot
Settings in all cases: compound 0.5 µM; ATP 10 µM
[1] = biological target: ACVRL1 (human) (UniProt P37023)
[2] = biological target: ADRBK2 (human) (UniProt P35626)
[3] = biological target: AURKB (human) (UniProt Q96GD4)
[4] = biological target: AURKC (human) (UniProt Q9UQB9)
[5] = biological target: CAMK1 (human) (UniProt Q14012)
[6] = biological target: CAMK2G (human) (UniProt Q13555)
[7] = biological target: CDK1 CCNA2 (human) (UniProt P06493+P20248)
[8] = biological target: CHEK1 (human) (UniProt O14757)
[9] = biological target: CLK2 (human) (UniProt P49760)
[10] = biological target: CSNK1G1 (human) (UniProt Q9HCP0)
[11] = biological target: DAPK1 (human) (UniProt P53355)
[12] = biological target: DYRK3 (human) (UniProt O43781)
[13] = biological target: EPHA3 (human) (UniProt P29320)
[14] = biological target: FGR (human) (UniProt P09769)
[15] = biological target: FLT1 (human) (UniProt P17948)
[16] = test system: FLT4 (human), P35916 [Q890H]
[17] = biological target: HCK (human) (UniProt P08631)
[18] = biological target: IRAK1 (human) (UniProt P51617)
[19] = biological target: IRAK4 (human) (UniProt Q9NWZ3)
[20] = biological target: ITK (human) (UniProt Q08881)
[21] = biological target: KIT (human) (UniProt P10721)
[22] = test system: MAP2K6 (human), P52564 [S207E/T211E]
[23] = biological target: MELK (human) (UniProt Q14680)
[24] = biological target: MST1R (human) (UniProt Q04912)
[25] = biological target: MYLK (human) (UniProt Q15746)
[26] = biological target: NEK2 (human) (UniProt P51955)
[27] = biological target: NEK7 (human) (UniProt Q8TDX7)
[28] = biological target: NLK (human) (UniProt Q9UBE8)
[29] = biological target: PAK3 (human) (UniProt O75914)
[30] = biological target: PNCK (human) (UniProt Q6P2M8)
[31] = biological target: PRKCA (human) (UniProt P17252)
[32] = biological target: PRKCI (human) (UniProt P41743)
[33] = test system: PRKCQ (human), Q04759 [P330L]
[34] = biological target: PRKCZ (human) (UniProt Q05513)
[35] = biological target: PTK2B (human) (UniProt Q14289)
[36] = biological target: ROS1 (human) (UniProt P08922)
[37] = biological target: RPS6KA4 KD2 (human) (UniProt O75676)
[38] = biological target: RPS6KB1 (human) (UniProt P23443)
[39] = biological target: SGK2 (human) (UniProt Q9HBY8)
[40] = biological target: STK25 (human) (UniProt O00506)
[41] = biological target: TYRO3 (human) (UniProt Q06418)
[42] = biological target: VRK1 (human) (UniProt Q99986)

PAK3 (human), sequence (O75914 whole entry, looked up): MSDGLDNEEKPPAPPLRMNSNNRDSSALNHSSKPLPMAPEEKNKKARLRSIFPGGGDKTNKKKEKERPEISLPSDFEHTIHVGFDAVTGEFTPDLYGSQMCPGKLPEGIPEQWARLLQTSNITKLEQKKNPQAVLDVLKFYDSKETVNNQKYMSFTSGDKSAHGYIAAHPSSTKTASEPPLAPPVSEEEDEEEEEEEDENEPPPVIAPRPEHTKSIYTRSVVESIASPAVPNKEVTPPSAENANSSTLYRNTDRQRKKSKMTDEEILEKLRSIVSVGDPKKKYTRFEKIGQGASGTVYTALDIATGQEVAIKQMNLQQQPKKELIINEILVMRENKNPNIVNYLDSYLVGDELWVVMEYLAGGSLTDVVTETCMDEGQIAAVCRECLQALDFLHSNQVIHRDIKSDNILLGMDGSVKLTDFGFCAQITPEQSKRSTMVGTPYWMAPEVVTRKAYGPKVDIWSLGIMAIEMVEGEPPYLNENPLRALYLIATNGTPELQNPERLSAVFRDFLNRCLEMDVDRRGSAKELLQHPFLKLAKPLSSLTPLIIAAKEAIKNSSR
CDK1 CCNA2 (human), sequence (P06493 whole entry, looked up): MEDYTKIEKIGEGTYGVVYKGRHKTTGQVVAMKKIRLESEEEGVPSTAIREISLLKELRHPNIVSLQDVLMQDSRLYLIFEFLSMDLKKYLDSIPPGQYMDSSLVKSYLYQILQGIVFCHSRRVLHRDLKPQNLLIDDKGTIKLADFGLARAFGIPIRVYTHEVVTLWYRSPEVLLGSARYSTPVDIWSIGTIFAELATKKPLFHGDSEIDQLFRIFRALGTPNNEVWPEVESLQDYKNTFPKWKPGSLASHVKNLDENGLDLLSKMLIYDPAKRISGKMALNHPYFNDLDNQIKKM
CDK1 CCNA2 (human), sequence (P20248 whole entry, looked up): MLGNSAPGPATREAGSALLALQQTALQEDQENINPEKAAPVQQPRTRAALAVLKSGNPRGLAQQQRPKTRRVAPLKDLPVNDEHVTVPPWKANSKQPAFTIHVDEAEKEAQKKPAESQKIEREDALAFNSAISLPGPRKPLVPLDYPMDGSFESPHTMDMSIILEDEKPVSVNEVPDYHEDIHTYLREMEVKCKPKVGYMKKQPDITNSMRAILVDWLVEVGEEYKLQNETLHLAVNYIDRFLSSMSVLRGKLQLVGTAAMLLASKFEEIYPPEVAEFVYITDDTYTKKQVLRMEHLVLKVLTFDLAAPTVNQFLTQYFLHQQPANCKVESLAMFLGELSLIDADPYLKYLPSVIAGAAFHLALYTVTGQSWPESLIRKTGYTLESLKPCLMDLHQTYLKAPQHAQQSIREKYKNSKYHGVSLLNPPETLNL
SGK2 (human), sequence (Q9HBY8 whole entry, looked up): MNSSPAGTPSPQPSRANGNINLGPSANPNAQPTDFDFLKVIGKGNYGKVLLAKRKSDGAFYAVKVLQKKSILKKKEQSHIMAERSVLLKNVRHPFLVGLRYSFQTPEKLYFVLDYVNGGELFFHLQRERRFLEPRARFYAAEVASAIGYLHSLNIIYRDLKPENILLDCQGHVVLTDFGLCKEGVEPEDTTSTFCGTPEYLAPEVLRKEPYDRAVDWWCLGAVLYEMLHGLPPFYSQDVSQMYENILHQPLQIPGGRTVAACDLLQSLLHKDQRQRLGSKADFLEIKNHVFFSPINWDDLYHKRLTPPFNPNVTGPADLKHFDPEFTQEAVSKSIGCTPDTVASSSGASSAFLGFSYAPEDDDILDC
MELK (human), sequence (Q14680 whole entry, looked up): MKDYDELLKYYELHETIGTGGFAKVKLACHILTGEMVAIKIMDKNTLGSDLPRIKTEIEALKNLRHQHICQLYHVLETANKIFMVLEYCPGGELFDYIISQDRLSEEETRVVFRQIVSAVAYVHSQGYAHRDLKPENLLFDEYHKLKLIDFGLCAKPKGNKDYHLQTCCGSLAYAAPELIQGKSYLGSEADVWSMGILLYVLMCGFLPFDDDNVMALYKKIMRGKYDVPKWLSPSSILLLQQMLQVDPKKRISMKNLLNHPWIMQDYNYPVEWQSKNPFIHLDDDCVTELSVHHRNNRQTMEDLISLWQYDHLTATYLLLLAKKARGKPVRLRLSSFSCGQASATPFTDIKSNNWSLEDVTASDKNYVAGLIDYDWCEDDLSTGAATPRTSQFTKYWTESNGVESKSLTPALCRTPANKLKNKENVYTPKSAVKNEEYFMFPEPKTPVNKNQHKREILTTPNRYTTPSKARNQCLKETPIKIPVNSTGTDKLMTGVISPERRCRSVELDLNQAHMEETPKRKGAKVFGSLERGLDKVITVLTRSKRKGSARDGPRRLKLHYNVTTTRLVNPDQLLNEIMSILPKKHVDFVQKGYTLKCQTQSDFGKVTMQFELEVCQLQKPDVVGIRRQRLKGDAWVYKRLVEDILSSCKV
FLT4 (human), P35916 [Q890H], sequence (P35916 whole entry, looked up, stated change not applied): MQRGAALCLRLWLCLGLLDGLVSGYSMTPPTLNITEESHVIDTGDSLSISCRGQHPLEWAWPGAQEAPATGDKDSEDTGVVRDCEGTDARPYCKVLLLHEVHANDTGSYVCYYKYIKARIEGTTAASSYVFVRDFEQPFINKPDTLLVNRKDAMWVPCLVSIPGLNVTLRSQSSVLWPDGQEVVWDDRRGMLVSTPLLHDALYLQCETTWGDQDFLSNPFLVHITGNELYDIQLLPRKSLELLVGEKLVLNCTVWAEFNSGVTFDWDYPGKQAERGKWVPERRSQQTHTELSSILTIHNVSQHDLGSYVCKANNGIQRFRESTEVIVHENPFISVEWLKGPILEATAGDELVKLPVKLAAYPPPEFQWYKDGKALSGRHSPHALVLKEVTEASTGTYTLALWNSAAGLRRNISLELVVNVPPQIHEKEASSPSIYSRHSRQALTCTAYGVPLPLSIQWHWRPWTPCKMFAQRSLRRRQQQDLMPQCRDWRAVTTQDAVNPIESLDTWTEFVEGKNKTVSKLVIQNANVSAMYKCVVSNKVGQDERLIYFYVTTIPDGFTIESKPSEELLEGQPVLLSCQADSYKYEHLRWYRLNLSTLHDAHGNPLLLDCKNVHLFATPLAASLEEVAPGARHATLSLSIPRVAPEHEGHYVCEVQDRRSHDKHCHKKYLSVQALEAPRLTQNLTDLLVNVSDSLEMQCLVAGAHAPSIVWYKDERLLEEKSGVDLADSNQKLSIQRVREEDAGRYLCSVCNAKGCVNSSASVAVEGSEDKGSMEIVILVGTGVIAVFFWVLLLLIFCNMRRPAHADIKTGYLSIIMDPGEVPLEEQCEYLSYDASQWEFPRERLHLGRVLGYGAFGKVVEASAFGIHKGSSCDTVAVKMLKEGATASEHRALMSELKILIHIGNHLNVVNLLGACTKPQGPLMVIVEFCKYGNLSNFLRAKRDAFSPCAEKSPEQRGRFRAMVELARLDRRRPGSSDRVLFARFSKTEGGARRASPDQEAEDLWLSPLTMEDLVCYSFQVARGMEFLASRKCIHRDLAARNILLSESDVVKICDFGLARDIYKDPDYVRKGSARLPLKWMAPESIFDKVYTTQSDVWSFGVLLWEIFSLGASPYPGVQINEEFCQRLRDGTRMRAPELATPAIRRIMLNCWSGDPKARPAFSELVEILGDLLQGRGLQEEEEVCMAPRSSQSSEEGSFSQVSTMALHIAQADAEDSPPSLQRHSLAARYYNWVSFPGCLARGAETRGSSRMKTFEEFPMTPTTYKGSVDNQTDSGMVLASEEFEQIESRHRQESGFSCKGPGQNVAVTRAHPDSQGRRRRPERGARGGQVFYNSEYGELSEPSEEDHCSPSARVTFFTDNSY
PTK2B (human), sequence (Q14289 whole entry, looked up): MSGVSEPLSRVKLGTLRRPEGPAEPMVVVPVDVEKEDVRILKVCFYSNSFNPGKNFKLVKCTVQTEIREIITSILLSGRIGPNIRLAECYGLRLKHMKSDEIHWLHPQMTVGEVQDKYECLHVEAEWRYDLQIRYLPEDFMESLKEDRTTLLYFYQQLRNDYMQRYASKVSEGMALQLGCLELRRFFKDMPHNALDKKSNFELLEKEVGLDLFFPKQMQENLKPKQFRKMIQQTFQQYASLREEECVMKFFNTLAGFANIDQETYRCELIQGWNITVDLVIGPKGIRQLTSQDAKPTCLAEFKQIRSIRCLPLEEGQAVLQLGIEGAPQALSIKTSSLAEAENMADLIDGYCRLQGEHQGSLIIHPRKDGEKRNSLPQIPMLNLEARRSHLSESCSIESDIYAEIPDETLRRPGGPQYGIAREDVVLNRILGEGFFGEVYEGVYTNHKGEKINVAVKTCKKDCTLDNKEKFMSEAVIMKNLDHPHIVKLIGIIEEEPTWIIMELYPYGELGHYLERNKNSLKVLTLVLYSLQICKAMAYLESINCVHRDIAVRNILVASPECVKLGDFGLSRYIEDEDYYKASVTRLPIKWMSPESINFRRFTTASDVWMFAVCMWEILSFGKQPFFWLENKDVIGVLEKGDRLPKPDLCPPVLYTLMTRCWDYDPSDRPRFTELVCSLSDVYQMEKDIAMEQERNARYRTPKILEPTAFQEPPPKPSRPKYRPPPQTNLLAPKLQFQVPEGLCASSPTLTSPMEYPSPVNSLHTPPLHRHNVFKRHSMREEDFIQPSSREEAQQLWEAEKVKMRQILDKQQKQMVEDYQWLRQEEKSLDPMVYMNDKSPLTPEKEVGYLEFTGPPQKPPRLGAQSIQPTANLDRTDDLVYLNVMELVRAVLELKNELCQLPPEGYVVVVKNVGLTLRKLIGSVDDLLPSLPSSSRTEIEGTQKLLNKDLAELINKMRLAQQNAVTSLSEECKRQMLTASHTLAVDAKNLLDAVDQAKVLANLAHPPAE
AURKB (human), sequence (Q96GD4 whole entry, looked up): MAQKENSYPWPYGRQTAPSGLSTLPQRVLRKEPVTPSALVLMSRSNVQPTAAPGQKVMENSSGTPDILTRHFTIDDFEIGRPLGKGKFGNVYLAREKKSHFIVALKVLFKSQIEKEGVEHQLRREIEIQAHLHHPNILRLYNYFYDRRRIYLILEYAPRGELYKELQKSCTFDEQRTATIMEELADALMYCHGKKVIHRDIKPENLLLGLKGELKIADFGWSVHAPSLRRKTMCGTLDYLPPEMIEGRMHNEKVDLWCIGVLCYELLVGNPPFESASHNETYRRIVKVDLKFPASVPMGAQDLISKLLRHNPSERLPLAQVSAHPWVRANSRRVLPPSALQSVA

`c1ccc2c(-c3ccncc3)c[nH]c2c1` gave a residual activity [1] of 100%, a residual activity [2] of 95.4% and a residual activity [3] of 95.9%. It also gave a residual activity [4] of 93.1%, a residual activity [5] of 108% and a residual activity [6] of 92.6%. It also gave a residual activity [7] of 90.6%, a residual activity [8] of 104% and a residual activity [9] of 101%. It also gave a residual activity [10] of 79.2%, a residual activity [11] of 97.7% and a residual activity [12] of 101%. The residual activity [13] was 107%, the residual activity [14] was 94.5% and the residual activity [15] was 97.9%. The residual activity [16] was 119%, the residual activity [17] was 99.5% and the residual activity [18] was 127%. For the same compound, the residual activity [19] was 109%, the residual activity [20] was 94.8% and the residual activity [21] was 93.2%. The residual activity [22] was 106%, the residual activity [23] was 102% and the residual activity [24] was 98.9%. The residual activity [25] was 96.8%, the residual activity [26] was 106% and the residual activity [27] was 104%. It also gave a residual activity [28] of 95.1%, a residual activity [29] of 102% and a residual activity [30] of 98.5%. It also gave a residual activity [31] of 97.4%, a residual activity [32] of 82.4% and a residual activity [33] of 125%. For the same compound, the residual activity [34] was 98.3%, the residual activity [35] was 95.3% and the residual activity [36] was 81.6%. For the same compound, the residual activity [37] was 91%, the residual activity [38] was 79.9% and the residual activity [39] was 91%. The residual activity [40] was 117%, the residual activity [41] was 98.1% and the residual activity [42] was 101%.

`COc1ccc2c(c1)c(C1=C(c3c[nH]c4ccccc34)C(=O)NC1=O)cn2CCCN(C)C` showed a residual activity [1] of 87.8%, a residual activity [2] of 96.3% and a residual activity [3] of 88.5%. For the same compound, the residual activity [4] was 90.4%, the residual activity [5] was 90.2% and the residual activity [6] was 91.1%. For the same compound, the residual activity [7] was 95.7%, the residual activity [8] was 88.8% and the residual activity [9] was 78%. It also gave a residual activity [10] of 84.1%, a residual activity [11] of 105% and a residual activity [12] of 81%. The residual activity [13] was 94.1%, the residual activity [14] was 107% and the residual activity [15] was 22%. For the same compound, the residual activity [16] was 23.6%, the residual activity [17] was 111% and the residual activity [18] was 89%. The residual activity [19] was 91.2%, the residual activity [20] was 70.4% and the residual activity [21] was 88.8%. For the same compound, the residual activity [22] was 91.6%, the residual activity [23] was 70.7% and the residual activity [24] was 91.3%. For the same compound, the residual activity [25] was 66.9%, the residual activity [26] was 99.7% and the residual activity [27] was 99.1%. The residual activity [28] was 87.9%, the residual activity [29] was 105% and the residual activity [30] was 103%. For the same compound, the residual activity [31] was 3.14%, the residual activity [32] was 67.6% and the residual activity [33] was 4.5%. The residual activity [34] was 78.2%, the residual activity [35] was 104% and the residual activity [36] was 52.4%. The residual activity [37] was 78.6%, the residual activity [38] was 19.7% and the residual activity [39] was 92.6%. For the same compound, the residual activity [40] was 55.7%, the residual activity [41] was 90.7% and the residual activity [42] was 76.7%.

Compound `CS(=O)(=O)CCNCc1ccc(-c2ccc3ncnc(Nc4ccc(OCc5cccc(F)c5)c(Cl)c4)c3c2)o1` has a residual activity [1] of 105%, a residual activity [2] of 96.7% and a residual activity [3] of 98.4%. The residual activity [4] was 90.9%, the residual activity [5] was 102% and the residual activity [6] was 111%. For the same compound, the residual activity [7] was 101%, the residual activity [8] was 100% and the residual activity [9] was 95.1%. It also gave a residual activity [10] of 105%, a residual activity [11] of 107% and a residual activity [12] of 90.2%. It also gave a residual activity [13] of 98.2%, a residual activity [14] of 84.8% and a residual activity [15] of 100%. It also gave a residual activity [16] of 93.3%, a residual activity [17] of 86.5% and a residual activity [18] of 98.8%. It also gave a residual activity [19] of 91.5%, a residual activity [20] of 98.3% and a residual activity [21] of 98.4%. The residual activity [22] was 95.4%, the residual activity [23] was 88.5% and the residual activity [24] was 92.2%. For the same compound, the residual activity [25] was 90.7%, the residual activity [26] was 118% and the residual activity [27] was 98.7%. It also gave a residual activity [28] of 108%, a residual activity [29] of 105% and a residual activity [30] of 98.1%. For the same compound, the residual activity [31] was 83%, the residual activity [32] was 106% and the residual activity [33] was 72.4%. It also gave a residual activity [34] of 79.7%, a residual activity [35] of 101% and a residual activity [36] of 107%. It also gave a residual activity [37] of 93.4%, a residual activity [38] of 95.7% and a residual activity [39] of 106%. For the same compound, the residual activity [40] was 102%, the residual activity [41] was 98.9% and the residual activity [42] was 101%.

`CN(C)CCCn1cc(C2=C(c3c[nH]c4ccccc34)C(=O)NC2=O)c2ccccc21` showed a residual activity [1] of 107%, a residual activity [2] of 99% and a residual activity [3] of 86.6%. The residual activity [4] was 84.7%, the residual activity [5] was 82.7% and the residual activity [6] was 73.3%. The residual activity [7] was 100%, the residual activity [8] was 39.1% and the residual activity [9] was 28%. The residual activity [10] was 99.1%, the residual activity [11] was 87.9% and the residual activity [12] was 97.9%. It also gave a residual activity [13] of 93%, a residual activity [14] of 90.9% and a residual activity [15] of 78.1%. It also gave a residual activity [16] of 30.6%, a residual activity [17] of 92.3% and a residual activity [18] of 91.1%. For the same compound, the residual activity [19] was 135%, the residual activity [20] was 102% and the residual activity [21] was 69.5%. The residual activity [22] was 97.4%, the residual activity [23] was 42% and the residual activity [24] was 109%. The residual activity [25] was 23.2%, the residual activity [26] was 96.2% and the residual activity [27] was 87.1%. For the same compound, the residual activity [28] was 94%, the residual activity [29] was 92.1% and the residual activity [30] was 106%. The residual activity [31] was 6.27%, the residual activity [32] was 55.9% and the residual activity [33] was 17.3%. For the same compound, the residual activity [34] was 57.2%, the residual activity [35] was 98.5% and the residual activity [36] was 62.8%. The residual activity [37] was 34.9%, the residual activity [38] was 11.6% and the residual activity [39] was 74.4%. The residual activity [40] was 69.7%, the residual activity [41] was 97.2% and the residual activity [42] was 95.5%.
